Reference: patent US20090285774A1, “Hepatitis C Virus Inhibitors” (Bristol-Myers Squibb Company, priority 2008, published 2009)
Like-named read-outs stand apart in the source and are kept apart here.

Legend:
[1] = biological target: T1, HCV NS3/4A protease complex, BMS strain (genotype 1a) (UniProt P27958, species not given/STRAIN_BMS); assay: FRET peptide assay to monitor HCV NS3/4A proteolytic activity (BMS strain); assay type: biochemical
T1 construct: DNA encoding the recombinant HCV NS3/4A protease complex (amino acids 1027 to 1711) for these strains [given for H77 and J4L6S only]; These are given only for the H77 and J4L6S constructs
Excerpt: (§1) HCV NS3 protease complexes, derived from the BMS strain, H77 strain or J4L6S strain, were generated, as described below. These purified recombinant proteins were generated for use in a homogeneous assay (see below) to provide an indication of how effective compounds of the present disclosure would be in inhibiting HCV NS3 proteolytic activity.
Serum from an HCV-infected patient was obtained from Dr. T. Wright, San Francisco Hospital. An engineered full-length cDNA (compliment deoxyribonucleic acid) template of the HCV genome (BMS strain) was constructed from DNA fragments obtained by reverse transcription-PCR (RT-PCR) of serum RNA (ribonucleic acid) and using primers selected on the basis of homology between other genotype 1a strains. From the determination of the entire genome sequence, a genotype 1a was assigned to the HCV isolate according to the classification of Simmonds et al. (See P Simmonds, K A Rose, S Graham, S W Chan, F McOmish, B C Dow, E A Follett, P L Yap and H Marsdeni, J. Clin. Microbiol., 31(6):1493-1503 (1993)). […] The infectious clones, H77 (1a genotype) and J4L6S (1b genotype) were obtained from R. Purcell (NIH) and the sequences are published in Genbank (AAB67036, see Yanagi, M., Purcell, R. H., Emerson, S. U. and Bukh, J. Proc. Natl. Acad. Sci. U.S.A. 94(16):8738-8743 (1997); AF054247, see Yanagi, M., St Claire, M., Shapiro, M., Emerson, S. U., Purcell, R. H. and Bukh, J, Virology 244 (1), 161-172. (1998)).
The H77 and J4L6S strains were used for production of recombinant NS3/4A protease complexes. DNA encoding the recombinant HCV NS3/4A protease complex (amino acids 1027 to 1711) for these strains were manipulated as described by P. Gallinari et al. (see Gallinari P, Paolini C, Breruian D, Nardi C, Steinlkuhler C, De Francesco R. Biochemistry. 38(17);5620-32, (1999)). Briefly, a three-lysine solubilizing tail was added at the 3′-end of the NS4A coding region. The cysteine in the P1 position of the NS4A-NS4B cleavage site (amino acid 1711) was changed to a glycine to avoid the proteolytic cleavage of the lysine tag. Furthermore, a cysteine to serine mutation was introduced by PCR at amino acid position 1454 to prevent the autolytic cleavage in the NS3 helicase domain. The variant DNA fragment was cloned in the pET21b bacterial expression vector (Novagen) and the NS3/4A complex was expressed in Escherichia. coli strain BL21 (DE3) (Invitrogen) following the protocol described by P. Gallinari et al. (see Gallinari P, Breinan D, Nardi C, Brunetti M, Tomei L, Steinkuhler C, De Francesco R., J Virol. 72(8):6758-69 (1998)) with modifications. Briefly, the NS3/4A protease complex expression was induced with 0.5 millimolar (mM) Isopropyl β-D-1-thiogalactopyranoside (IPTG) for 22 hours (h) at 20° C. A typical fermentation (1 Liter (L)) yielded approximately 10 grams (g) of wet cell paste. The cells were resuspended in lysis buffer (10 mL/g) consisting of 25 mM N-(2-Hydroxyethyl)Piperazine-N′-(2-Ethane Sulfonic acid) (HEPES), pH 7.5, 20% glycerol, 500 mM Sodium Chloride (NaCl), 0.5% Triton X-100, 1 microgram/milliliter (“μg/mL”) lysozyme, 5 mM Magnesium Chloride (MgCl2), 1 μg/ml DnaseI, 5mM β-Mercaptoethanol (βME), Protease inhibitor-Ethylenediamine Tetraacetic acid (EDTA) free (Roche), homogenized and incubated for 20 minutes (min) at 4° C. The homogenate was sonicated and clarified by ultra-centrifugation at 235000 g for 1 hour (h) at 4° C. Imidazole was added to the supernatant to a final concentration of 15 mM and the pH adjusted to 8.0. The crude protein extract was loaded on a Nickel-Nitrilotriacetic acid (Ni-NTA) column pre-equilibrated with buffer B (25 mM HEPES, pH 8.0, 20% glycerol, 500 mM NaCl, 0.5% Triton X-100, 15 mM imidazole, 5 mM βMB). The sample was loaded at a flow rate of 1 mL/min. The column was washed with 15 column volumes of buffer C (same as buffer B except with 0.2% Triton X-100). The protein was eluted with 5 column volumes of buffer D (same as buffer C except with 200 mM Imidazole). […]

[2] = tested on: HCV replicon (strain 1b) in HUH-7 cells; assay: HCV replicon FRET assay; assay type: cell-based; conditions: Hepatitis C virus
Excerpt: An HCV replicon whole cell system was established as described by Lohmann V, Korner F, Koch J, Herian U, Theilmann L, Bartenschlager R., Science 285(5424):110-3 (1999). This system enabled us to evaluate the effects of our HCV Protease compounds on HCV RNA replication. Briefly, using the HCV strain 1b sequence described in the Lohmann paper (Assession number: AJ238799), an HCV cDNA was synthesized by Operon Technologies, Inc. (Alameda, Calif.), and the full-length replicon was then assembled in plasmid pGem9zf(+) (Promega, Madison, Wis.) using standard molecular biology techniques. The replicon consists of (i) the HCV 5′ UTR fused to the first 12 amino acids of the capsid protein, (ii) the neomycin phosphotransferase gene (neo), (iii) the IRES from encephalomyocarditis virus (EMCV), and (iv) HCV NS3 to NS5B genes and the HCV 3′ UTR. Plasmid DNAs were linearized with ScaI and RNA transcripts were synthesized in vitro using the T7 MegaScript transcription kit (Aibion, Austin, Tex.) according to manufacturer's directions. In vitro transcripts of the cDNA were transfected into the human hepatoma cell line, HUH-7. […] Resulting cell lines were characterized for positive and negative strand RNA production and protein production over time.
The HCV replicon FRET assay was developed to monitor the inhibitory effects of compounds described in the disclosure on NCV viral replication. HUH-7 cells, constitutively expressing the HCV replicon, were grown in Dulbecco's Modified Eagle Media (DMEM) (Gibco-BRL) containing 10% Fetal calf serum (FCS) (Sigma) and 1 mg/ml G418 (Gibco-BRL). Cells were seeded the night before (1.5×10^4 cells/well) in 96-well tissue-culture sterile plates. Compound and no compound controls were prepared in DMEM containing 4% FCS, 1:100 Penicillin/Streptomysin (Gibco-BRL), 1:100 L-glutamine and 5% DMSO in the dilution plate (0.5% DMSO final concentration in the assay). Compound/DMSO mixes were added to the cells and incubated for 4 days at 37° C. After 4 days, cells were first assessed for cytotoxicity using alamar Blue (Trek Diagnotstic Systems) for a CC50 reading. The toxicity of compound (CC50) was determined by adding 1/10th volume of alamar Blue to the media incubating the cells. After 4 h, the fluorescence signal from each well was read, with an excitation wavelength at 530 nm and an emission wavelength of 580 nm, using the Cytofluor Series 4000 (Perspective Biosystems). Plates were then rinsed thoroughly with Phosphate-Buffered Saline (PBS) (3 times 150 μl).

[3] = biological target: T2, HCV NS3/4A protease complex, H77 strain (1a genotype) (Hepatitis C virus genotype 1a, UniProt P27958, C1454S/C1711G); assay: FRET peptide assay to monitor HCV NS3/4A proteolytic activity (H77 strain); assay type: biochemical
T2 construct: DNA encoding the recombinant HCV NS3/4A protease complex (amino acids 1027 to 1711) for these strains; inferred from pET21b vector and Ni-NTA purification; made in house; host or cells: Escherichia coli BL21 (DE3), pET21b
Excerpt: as §1
(§2) Serum from an HCV-infected patient was obtained from Dr. T. Wright, San Francisco Hospital. An engineered full-length cDNA (compliment deoxyribonucleic acid) template of the HCV genome (BMS strain) was constructed from DNA fragments obtained by reverse transcription-PCR (RT-PCR) of serum RNA (ribonucleic acid) and using primers selected on the basis of homology between other genotype 1a strains. From the determination of the entire genome sequence, a genotype 1a was assigned to the HCV isolate according to the classification of Simmonds et al. (See P Simmonds, K A Rose, S Graham, S W Chan, F McOmish, B C Dow, E A Follett, P L Yap and H Marsdeni, J. Clin. Microbiol., 31(6):1493-1503 (1993)). […]

[4] = biological target: T3, HCV NS3/4A protease complex, J4L6S strain (1b genotype) (Hepatitis C virus genotype 1b, UniProt O92972, C1454S/C1711G); assay: FRET peptide assay to monitor HCV NS3/4A proteolytic activity (J4L6S strain); assay type: biochemical
T3 construct: DNA encoding the recombinant HCV NS3/4A protease complex (amino acids 1027 to 1711) for these strains; inferred from pET21b vector and Ni-NTA purification; made in house; host or cells: Escherichia coli BL21 (DE3), pET21b
Excerpt: as §1, §2

[5] = biological target: T4, human neutrophil elastase (HNE) (Homo sapiens, UniProt P08246); assay: Specificity assay, human neutrophil elastase; assay type: biochemical; conditions: read-out: HLE activity in the specificity assays (IC50)
T4 sequence (P08246 30-267): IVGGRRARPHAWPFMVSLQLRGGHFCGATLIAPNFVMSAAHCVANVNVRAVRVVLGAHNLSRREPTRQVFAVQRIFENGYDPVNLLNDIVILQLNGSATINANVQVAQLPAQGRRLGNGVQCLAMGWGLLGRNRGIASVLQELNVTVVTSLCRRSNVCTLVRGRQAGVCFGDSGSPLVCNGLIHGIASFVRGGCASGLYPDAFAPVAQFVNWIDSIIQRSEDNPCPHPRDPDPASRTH
Procedure: (§3) The specificities of compounds of the present disclosure were determined against a variety of serine proteases: human neutrophil elastase (HNE), porcine pancreatic elastase (PPE) and human pancreatic chymotrypsin and one cysteine protease: human liver cathepsin B. In all cases a 96-well plate format protocol using a fluorometric Amino-Methyl-Coumarin (AMC) substrate specific for each enzyme was used as described previously (PCT Patent Application No. WO 00/09543) with some modifications to the serine protease assays. All enzymes were purchased from Sigma, EMDbiosciences while the substrates were from Bachem, Sigma and EMDbiosciences.
(§4) Compound concentrations varied from 100 to 0.4 μM depending on their potency. The enzyme assays were each initiated by addition of substrate to enzyme-inhibitor pre-incubated for 10 min at room temperature and hydrolysis to 15% conversion as measured on cytofluor. […]
(§5) The percentage of inhibition was calculated using the formula: […]

[6] = biological target: porcine pancreatic elastase (PPE) (Sus scrofa, UniProt P00772); assay: Specificity assay, porcine pancreatic elastase; assay type: biochemical; conditions: read-out: PPE activity in the specificity assays (IC50)
Procedure: as §3, §4, §5

[7] = tested on: human pancreatic chymotrypsin; assay: Specificity assay, chymotrypsin; assay type: biochemical; conditions: read-out: Chymotrypsin activity in the specificity assays (IC50)
Procedure: as §3, §4, §5

human liver cathepsin B = biological target: T5, human liver cathepsin B (Homo sapiens, UniProt P07858); assay: Specificity assay, cathepsin B; assay type: biochemical; conditions: read-out: Cathepsin B activity in the specificity assays (IC50)
T5 construct: host or cells: human liver (from the name)
Procedure: as §3, §4, §5

[8] = NS3/4A BMS strain, value, read-out: IC50 (range or value)
[9] = Huh-7, HCV replicon, value, read-out: EC50 (range or value)
[10] = NS3/4A BMS strain, activity range, read-out: IC50 (range or value)
[11] = Huh-7, HCV replicon, activity range, read-out: EC50 (range or value)

T1 sequence (P27958 1027-1657, stated change not applied, one chain of several): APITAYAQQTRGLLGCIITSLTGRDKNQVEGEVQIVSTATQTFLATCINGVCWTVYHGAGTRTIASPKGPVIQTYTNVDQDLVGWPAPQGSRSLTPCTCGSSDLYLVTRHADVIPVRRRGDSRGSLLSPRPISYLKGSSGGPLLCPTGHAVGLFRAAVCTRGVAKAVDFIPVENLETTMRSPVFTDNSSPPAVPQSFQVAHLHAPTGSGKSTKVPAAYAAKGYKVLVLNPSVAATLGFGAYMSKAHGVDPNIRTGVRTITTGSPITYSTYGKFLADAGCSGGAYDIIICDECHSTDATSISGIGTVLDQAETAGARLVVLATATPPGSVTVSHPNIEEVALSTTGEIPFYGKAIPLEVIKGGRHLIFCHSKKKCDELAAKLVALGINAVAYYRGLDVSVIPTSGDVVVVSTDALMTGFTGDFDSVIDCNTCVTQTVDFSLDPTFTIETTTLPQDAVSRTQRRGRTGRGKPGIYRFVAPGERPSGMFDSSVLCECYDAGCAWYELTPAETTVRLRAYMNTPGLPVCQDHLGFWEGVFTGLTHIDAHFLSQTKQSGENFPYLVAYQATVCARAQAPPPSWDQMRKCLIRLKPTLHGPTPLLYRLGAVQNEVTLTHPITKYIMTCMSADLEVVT
Chain of porcine pancreatic elastase (PPE) (P00772 27-266): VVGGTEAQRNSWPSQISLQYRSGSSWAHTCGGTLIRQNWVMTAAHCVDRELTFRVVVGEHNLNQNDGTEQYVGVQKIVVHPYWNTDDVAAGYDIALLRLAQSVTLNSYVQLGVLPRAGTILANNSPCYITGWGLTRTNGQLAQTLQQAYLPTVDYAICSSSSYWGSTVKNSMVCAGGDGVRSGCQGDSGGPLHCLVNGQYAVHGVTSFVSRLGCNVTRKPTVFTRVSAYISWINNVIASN
T2 sequence (P27958 1027-1711 C1454S/C1711G, one chain of several): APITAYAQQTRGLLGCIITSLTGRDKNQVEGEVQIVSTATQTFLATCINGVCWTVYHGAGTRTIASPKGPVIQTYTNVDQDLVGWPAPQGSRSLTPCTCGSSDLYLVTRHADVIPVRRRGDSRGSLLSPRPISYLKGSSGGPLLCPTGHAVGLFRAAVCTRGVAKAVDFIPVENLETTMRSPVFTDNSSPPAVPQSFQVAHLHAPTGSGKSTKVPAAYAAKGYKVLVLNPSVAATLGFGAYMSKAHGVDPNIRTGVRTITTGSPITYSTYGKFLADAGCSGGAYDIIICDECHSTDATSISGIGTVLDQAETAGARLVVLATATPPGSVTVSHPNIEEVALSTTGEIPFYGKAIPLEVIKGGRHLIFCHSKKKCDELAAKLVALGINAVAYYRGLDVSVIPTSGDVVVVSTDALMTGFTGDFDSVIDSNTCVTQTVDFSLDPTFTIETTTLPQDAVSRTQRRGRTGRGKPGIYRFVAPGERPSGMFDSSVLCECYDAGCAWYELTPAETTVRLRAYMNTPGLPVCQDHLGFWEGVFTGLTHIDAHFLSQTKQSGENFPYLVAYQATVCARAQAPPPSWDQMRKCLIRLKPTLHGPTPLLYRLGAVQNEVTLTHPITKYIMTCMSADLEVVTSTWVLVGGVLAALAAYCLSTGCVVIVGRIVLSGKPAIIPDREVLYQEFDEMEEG
T3 sequence (O92972 1027-1711 C1454S/C1711G, one chain of several): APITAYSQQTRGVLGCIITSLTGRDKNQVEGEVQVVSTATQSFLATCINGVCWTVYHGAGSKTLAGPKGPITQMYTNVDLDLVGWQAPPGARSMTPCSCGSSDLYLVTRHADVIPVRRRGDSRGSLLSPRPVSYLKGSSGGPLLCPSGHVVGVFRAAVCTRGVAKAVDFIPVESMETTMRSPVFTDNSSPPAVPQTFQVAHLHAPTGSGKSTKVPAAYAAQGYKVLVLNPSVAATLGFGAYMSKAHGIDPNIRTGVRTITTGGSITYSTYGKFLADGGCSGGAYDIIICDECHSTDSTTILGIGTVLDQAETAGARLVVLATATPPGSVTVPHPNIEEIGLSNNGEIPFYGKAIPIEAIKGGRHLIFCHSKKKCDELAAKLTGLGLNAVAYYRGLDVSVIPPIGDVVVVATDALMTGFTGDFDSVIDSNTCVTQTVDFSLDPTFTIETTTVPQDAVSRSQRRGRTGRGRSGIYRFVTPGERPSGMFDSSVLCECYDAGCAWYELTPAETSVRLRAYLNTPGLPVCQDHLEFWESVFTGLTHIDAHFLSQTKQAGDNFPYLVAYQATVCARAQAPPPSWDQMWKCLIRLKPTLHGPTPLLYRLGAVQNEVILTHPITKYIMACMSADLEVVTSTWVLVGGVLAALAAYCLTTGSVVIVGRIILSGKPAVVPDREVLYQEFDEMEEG

| Compound | IC50 [1, 8] [nM] | EC50 [2, 9] [nM] | IC50 [1, 10] [nM] | EC50 [2, 11] [nM] | further results |
| --- | --- | --- | --- | --- | --- |
| C=C[C@@H]1C[C@]1(NC(=O)[C@@H]1C[C@@H](Oc2cc(-c3cccs3)cc(-c3ccccc3)n2)CN1C(=O)C(Nc1cc(C)cc(C)n1)C(C)C)C(=O)NS(=O)(=O)C1CC1 (single isomer, unassigned) [Compound 1A] | 14 | 65.3 |  |  |  |
| C=C[C@@H]1C[C@]1(NC(=O)[C@@H]1C[C@@H](Oc2cc(-c3cccs3)cc(-c3ccccc3)n2)CN1C(=O)C(Nc1cc(C)cc(C)n1)C(C)C)C(=O)NS(=O)(=O)C1CC1 (single isomer, unassigned) [Compound 1B] |  |  | 20 to 200 | 100 to 1000 |  |
| C=C[C@@H]1C[C@]1(NC(=O)[C@@H]1C[C@@H](OC(=O)N2Cc3cccc(F)c3C2)CN1C(=O)C(Nc1cc(C)cc(C)n1)C(C)C)C(=O)NS(=O)(=O)C1CC1 (single isomer, unassigned) [Compound 2A] |  |  | 4 to 20 | 14 to 100 | IC50 ([1]; BMS strain, read-out: IC50 against the NS3/4A BMS strain in the enzyme assay): 8.9 nM; IC50 [3]: 1.4 nM; IC50 [4]: 1.2 nM; EC50 ([2]; Huh-7, replicon FRET assay, read-out: EC50 value in the replicon FRET assay): 69 nM; IC50 [5]: 4600 nM; IC50 [6]: > 100000 nM; IC50 [7]: 2100 nM; IC50 (human liver cathepsin B): > 100000 nM |
| C=C[C@@H]1C[C@]1(NC(=O)[C@@H]1C[C@@H](OC(=O)N2Cc3cccc(F)c3C2)CN1C(=O)C(Nc1cc(C)cc(C)n1)C(C)C)C(=O)NS(=O)(=O)C1CC1 (single isomer, unassigned) [Compound 2B] | 135 | 3480 |  |  |  |
| C=C[C@@H]1C[C@]1(NC(=O)C1CC(Oc2cc(-c3ccccc3)nc3cc(OC)ccc23)CN1C(=O)[C@@H](Nc1nc(CC)cs1)C(C)(C)C)C(=O)NS(=O)(=O)C1CC1 (stereo partly shown) [Compound 3] | 4.55 | 14.6 |  |  |  |
| C=C[C@@H]1C[C@]1(NC(=O)C1CC(Oc2cc(-c3ccccc3)nc3cc(OC)ccc23)CN1C(=O)[C@@H](Nc1nc(C(C)(C)C)cs1)C(C)(C)C)C(=O)NS(=O)(=O)C1CC1 (stereo partly shown) [Compound 4] |  |  | 4 to 20 | 14 to 100 |  |
| C=C[C@@H]1C[C@]1(NC(=O)C1CC(Oc2cc(-c3ccccc3)nc3cc(OC)ccc23)CN1C(=O)[C@@H](Nc1nc(C(F)(F)F)cs1)C(C)(C)C)C(=O)NS(=O)(=O)C1CC1 (stereo partly shown) [Compound 5] |  |  | 4 to 20 | 14 to 100 |  |
